Laboratory results taken from the NIST ThermoML archive (doi:10.1021/acs.jced.9b00420).

Conditions: Liquid; for mass density: Vibrating tube method; for speed of sound: Light diffraction method

CCCCCCCCC(=O)OCC [ethyl nonanoate]
Conditions	mass density [kg/m3]	speed of sound [m/s]
293.15 K, 100 kPa	865.02	–
295.24 K, 10000 kPa	–	1348.5
295.29 K, 7000 kPa	–	1342.4
295.35 K, 5000 kPa	–	1336.6
295.41 K, 3000 kPa	–	1327.1
295.53 K, 1000 kPa	–	1318.3
295.67 K, 100 kPa	–	1303.3
298.15 K, 100 kPa	860.89	–
303.15 K, 100 kPa	856.75	–
303.18 K, 10000 kPa	–	1318
303.22 K, 3000 kPa	–	1296.2
303.26 K, 1000 kPa	–	1278.4
303.3 K, 7000 kPa	–	1307
303.41 K, 5000 kPa	–	1298
303.48 K, 100 kPa	–	1273.9
313.08 K, 10000 kPa	–	1283.3
313.14 K, 1000 kPa	–	1242.7
313.15 K, 100 kPa	848.43	–
313.45 K, 7000 kPa	–	1266
313.56 K, 3000 kPa	–	1252.4
313.77 K, 100 kPa	–	1224.9
314.03 K, 5000 kPa	–	1262.6
322.95 K, 7000 kPa	–	1231.4
323.15 K, 100 kPa	840.09	–
323.39 K, 10000 kPa	–	1246.8
323.64 K, 5000 kPa	–	1215.5
323.68 K, 100 kPa	–	1183.3
324.78 K, 3000 kPa	–	1204.3
324.85 K, 1000 kPa	–	1195.5
332.89 K, 10000 kPa	–	1208.8
332.93 K, 3000 kPa	–	1175.1
333.15 K, 100 kPa	831.73	–
333.21 K, 1000 kPa	–	1163.1
334.21 K, 5000 kPa	–	1185
334.21 K, 7000 kPa	–	1191.7
334.94 K, 100 kPa	–	1142.9
342.88 K, 3000 kPa	–	1137.2
343.1 K, 10000 kPa	–	1170.1
343.12 K, 5000 kPa	–	1153.6
343.15 K, 100 kPa	823.33	–
343.24 K, 1000 kPa	–	1123.8
343.31 K, 7000 kPa	–	1157.3
343.51 K, 100 kPa	–	1107.8
351.94 K, 3000 kPa	–	1098.9
352.22 K, 1000 kPa	–	1085.5
352.39 K, 10000 kPa	–	1135
353.15 K, 100 kPa	814.88	–
353.27 K, 5000 kPa	–	1106.1
353.32 K, 7000 kPa	–	1114.4
354.18 K, 100 kPa	–	1065.4
361.97 K, 5000 kPa	–	1078.7
362.59 K, 7000 kPa	–	1085.6
362.97 K, 3000 kPa	–	1063.9
363 K, 10000 kPa	–	1106.9
363.3 K, 1000 kPa	–	1046
364.18 K, 100 kPa	–	1028.8
371.77 K, 5000 kPa	–	1046.8
371.91 K, 1000 kPa	–	1012.3
371.99 K, 100 kPa	–	1003
372.73 K, 3000 kPa	–	1024.3
373.24 K, 10000 kPa	–	1068.4
373.26 K, 7000 kPa	–	1045.8
381.51 K, 5000 kPa	–	1011.2
381.89 K, 100 kPa	–	965.2
381.96 K, 3000 kPa	–	995.2
383.17 K, 10000 kPa	–	1037.3
383.69 K, 7000 kPa	–	1011.5
384.3 K, 1000 kPa	–	971.3
391.7 K, 5000 kPa	–	974.2
391.74 K, 7000 kPa	–	985.8
391.74 K, 10000 kPa	–	1009.8
391.75 K, 1000 kPa	–	939.5
391.81 K, 3000 kPa	–	961.1
391.89 K, 100 kPa	–	932.1
403.31 K, 1000 kPa	–	902.3
403.36 K, 7000 kPa	–	943.9
403.46 K, 3000 kPa	–	921.8
403.47 K, 10000 kPa	–	968.6
403.82 K, 5000 kPa	–	929.8
405.01 K, 100 kPa	–	884
412.73 K, 3000 kPa	–	893.7
412.73 K, 10000 kPa	–	936.6
412.81 K, 7000 kPa	–	917.8
412.98 K, 1000 kPa	–	870.1
413.05 K, 5000 kPa	–	904.2
413.84 K, 100 kPa	–	861.2
421.5 K, 5000 kPa	–	875.4
421.83 K, 1000 kPa	–	842.1
421.98 K, 10000 kPa	–	916
422 K, 7000 kPa	–	891
422.02 K, 3000 kPa	–	862.5
422.07 K, 100 kPa	–	827.6
431.53 K, 1000 kPa	–	808.9
431.84 K, 5000 kPa	–	850.9
431.86 K, 10000 kPa	–	888.7
431.88 K, 7000 kPa	–	861.7
432.05 K, 3000 kPa	–	827.6
432.93 K, 100 kPa	–	797.1
442.94 K, 1000 kPa	–	779.7
443 K, 7000 kPa	–	835.6
443.02 K, 10000 kPa	–	860.3
443.11 K, 3000 kPa	–	796.4
443.15 K, 5000 kPa	–	814.1
443.7 K, 100 kPa	–	767.3
452.5 K, 1000 kPa	–	750.6
452.64 K, 7000 kPa	–	805
452.65 K, 5000 kPa	–	786.9
452.68 K, 10000 kPa	–	835.1
452.83 K, 100 kPa	–	739.6
452.88 K, 3000 kPa	–	771.1
462.31 K, 3000 kPa	–	743.5
462.34 K, 7000 kPa	–	783.1
462.43 K, 10000 kPa	–	804.8
462.49 K, 5000 kPa	–	763
462.68 K, 1000 kPa	–	720.1
464.19 K, 100 kPa	–	703.5
471.8 K, 3000 kPa	–	718.5
471.86 K, 5000 kPa	–	737.7
471.86 K, 7000 kPa	–	756.6
471.87 K, 1000 kPa	–	693.4
471.88 K, 100 kPa	–	683
471.95 K, 10000 kPa	–	783.4
482.55 K, 1000 kPa	–	665.4
482.56 K, 3000 kPa	–	691.9
482.58 K, 7000 kPa	–	727.2
482.62 K, 5000 kPa	–	709.2
482.62 K, 10000 kPa	–	759.9
482.75 K, 100 kPa	–	652.6
492.48 K, 10000 kPa	–	735.7
492.57 K, 3000 kPa	–	660.7
492.66 K, 7000 kPa	–	704.9
492.67 K, 5000 kPa	–	681.7
493 K, 1000 kPa	–	637.4
502.65 K, 3000 kPa	–	635.1
502.91 K, 7000 kPa	–	681.8
502.95 K, 1000 kPa	–	607.9
503.08 K, 10000 kPa	–	709.9
503.42 K, 5000 kPa	–	655.5
512.78 K, 7000 kPa	–	655
512.8 K, 10000 kPa	–	689.4
512.83 K, 3000 kPa	–	609.6
512.9 K, 5000 kPa	–	633.5
513.2 K, 1000 kPa	–	581.3
522.13 K, 1000 kPa	–	555.5
522.19 K, 7000 kPa	–	631.9
522.31 K, 3000 kPa	–	583.9
522.36 K, 5000 kPa	–	609.3
522.38 K, 10000 kPa	–	662
533.35 K, 1000 kPa	–	519.4
533.43 K, 7000 kPa	–	605.6
533.52 K, 10000 kPa	–	637
533.6 K, 3000 kPa	–	552.1
533.69 K, 5000 kPa	–	581.4
542.72 K, 3000 kPa	–	528.8
542.76 K, 10000 kPa	–	619.6
542.79 K, 7000 kPa	–	583
542.91 K, 5000 kPa	–	553.5
543.62 K, 1000 kPa	–	491
552.52 K, 3000 kPa	–	500.5
552.61 K, 7000 kPa	–	558.1
552.71 K, 1000 kPa	–	458.7
552.72 K, 5000 kPa	–	527.6
552.76 K, 10000 kPa	–	596.5
562.08 K, 1000 kPa	–	428.6
562.32 K, 5000 kPa	–	499.9
562.4 K, 7000 kPa	–	532
562.45 K, 10000 kPa	–	574.7
562.48 K, 3000 kPa	–	468.4
571.78 K, 3000 kPa	–	435.9
571.96 K, 1000 kPa	–	387.2
572.13 K, 7000 kPa	–	504.6
572.32 K, 10000 kPa	–	549
572.37 K, 5000 kPa	–	472
582.01 K, 5000 kPa	–	439.9
582.26 K, 7000 kPa	–	473.6
582.35 K, 10000 kPa	–	525.5
582.39 K, 3000 kPa	–	393.3
591.81 K, 3000 kPa	–	351.2
592.38 K, 5000 kPa	–	398.5
592.79 K, 7000 kPa	–	438.3
593.15 K, 10000 kPa	–	495.3
